Laboratory results reported in patent publication US12152020B2, “Pesticidally active azole-amide compounds” (SYNGENTA PARTICIPATIONS AG, priority 2018, dated 2024).

Tests used:
Format in all cases: in vivo
[1] = tested on: Diabrotica balteata (Corn Root Worm); test: Example B1: Diabrotica balteata, maize sprouts sprayed, L2 larvae; conditions: 96 h, application rate of 200 ppm, 4 days after infestation, in comparison to untreated samples, read-out: effect in at least one of the two categories (mortality or growth inhibition)
Outline: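 Maize sprouts on agar sprayed with aqueous test solutions made from 10′000 ppm DMSO stocks, dried, then infested with 6–10 L2 larvae per well. Mortality and growth inhibition scored against untreated samples 4 days after infestation.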

[2] = tested on: Euschistus heros (Neotropical Brown Stink Bug); test: Example B2: Euschistus heros, soybean leaves sprayed, N2 nymphs; conditions: 120 h, application rate of 200 ppm, 5 days after infestation, in comparison to untreated samples, read-out: effect in at least one of the two categories (mortality or growth inhibition)
Protocol: Example B2: Euschistus heros (Neotropical Brown Stink Bug)
Soybean leaves on agar in 24-well microtiter plates were sprayed with aqueous test solutions prepared from 10′000 ppm DMSO stock solutions. After drying the leaves were infested with N2 nymphs. The samples were assessed for mortality and growth inhibition in comparison to untreated samples 5 days after infestation.
The following compounds gave an effect of at least 80% in at least one of the two categories (mortality or growth inhibition) at an application rate of 200 ppm: • P1, P2, P3, P7, P11, P12, P16, P17, P18, P22, P25, P29, P32, P33, P37, P38

[3] = tested on: Chilo suppressalis (Striped Rice Stemborer); test: Example B4: Chilo suppressalis, artificial diet, L2 larvae; conditions: 144 h, application rate of 200 ppm, 6 days after infestation, in comparison to untreated samples, read-out: control in at least one of the categories (mortality, anti-feedant effect, or growth inhibition)
Outline: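 Artificial diet was treated with aqueous dilutions made from 10'000 ppm DMSO stocks, dried, then infested with L2 larvae at 6–8 per well. Mortality, antifeedant effect and growth inhibition were assessed against untreated samples 6 days after infestation.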

[4] = tested on: Plutella xylostella (Diamond Back Moth); test: Example B5: Plutella xylostella, artificial diet in 24-well plates, eggs; conditions: 192 h, application rate of 200 ppm, 8 days after infestation, in comparison to untreated samples, read-out: effect in at least one of the two categories (mortality or growth inhibition)
Outline: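 Artificial diet in 24-well plates treated with aqueous test solutions made from 10′000 ppm DMSO stocks, dried, then infested with Plutella eggs. Mortality and growth inhibition scored against untreated samples 8 days after infestation.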

[5] = tested on: Myzus persicae (Green Peach Aphid); test: Example B6: Myzus persicae feeding/contact activity, sunflower leaf discs; conditions: foliar, 144 h, application rate of 200 ppm, aphid population of mixed ages, 6 days after infestation
Protocol: Example B6: Myzus persicae (Green Peach Aphid): Feeding/Contact Activity
Sunflower leaf discs were placed onto agar in a 24-well microtiter plate and sprayed with aqueous test solutions prepared from 10′000 ppm DMSO stock solutions. After drying, the leaf discs were infested with an aphid population of mixed ages. The samples were assessed for mortality 6 days after infestation.

[6] = tested on: Myzus persicae (Green Peach Aphid); test: Example B8: Myzus persicae intrinsic activity, sucrose solution under Parafilm, 24-well; conditions: 120 h, test rate of 12 ppm, 5 days after infestation
Outline: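 Compounds, diluted from 10′000 ppm DMSO stocks, were mixed with sucrose solution in wells sealed with stretched Parafilm. Aphid-infested pea seedlings were placed on the Parafilm, and the covered plate was turned upside down. Mortality was scored 5 days after infestation.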

[7] = tested on: Spodoptera littoralis (Egyptian Cotton Leaf Worm); test: Example B9: Spodoptera littoralis, cotton leaf discs sprayed, L1 larvae; conditions: foliar, 72 h, application rate of 200 ppm, five L1 larvae, 3 days after infestation, in comparison to untreated samples, read-out: control in at least one of the categories (mortality, anti-feedant effect, or growth inhibition)
Outline: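 Cotton leaf discs on agar sprayed with aqueous solutions made from 10′000 ppm DMSO stocks, dried, then infested with five L1 larvae. Mortality, anti-feeding and growth inhibition assessed against untreated samples 3 days after infestation; control counted when any category exceeded untreated.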

[8] = tested on: Spodoptera littoralis (Egyptian Cotton Leaf Worm); test: Example B10: Spodoptera littoralis, uptake by lettuce roots from agar, eggs; conditions: 144 h, test rate of 12.5 ppm, lettuce root uptake, 6 days after infestation, in comparison to untreated samples, read-out: effect in at least one of the three categories (mortality, anti-feeding, or growth inhibition)
Text: Example B10: Spodoptera littoralis (Egyptian Cotton Leaf Worm)
Test compounds were applied by pipette from 10′000 ppm DMSO stock solutions into 24-well plates and mixed with agar. Lettuce seeds were placed onto the agar and the multi well plate was closed by another plate which contained also agar. After 7 days the compound was absorbed by the roots and the lettuce grew into the lid plate. The lettuce leaves were then cut off into the lid plate. Spodoptera eggs were pipetted through a plastic stencil onto a humid gel blotting paper and the lid plate was closed with it. The samples were assessed for mortality, anti-feedant effect and growth inhibition in comparison to untreated samples 6 days after infestation.
The following compounds gave an effect of at least 80% in at least one of the three categories (mortality, anti-feeding, or growth inhibition) at a test rate of 12.5 ppm: • P3, P15, P32

[9] = tested on: Myzus persicae (Green Peach Aphid); test: Example B13: Myzus persicae, sucrose solution under Parafilm, 96-well; conditions: 120 h, application rate of 50 ppm, 5 days after infestation
Outline: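 Compounds from 10′000 ppm DMSO stocks mixed into sucrose solution, with aphids feeding through a Parafilm membrane in inverted plates. Mortality assessed 5 days after infestation.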

[10] = tested on: Plutella xylostella (Diamondback Moth); test: Example B14: Plutella xylostella, artificial diet in 96-well plates, eggs; conditions: 216 h, application rate of 500 ppm, 9 days after infestation
Outline: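 Artificial diet in microtiter wells treated with aqueous dilutions of DMSO stocks, dried, then infested with ~30 eggs per well; hatching L1 larvae feed on treated diet. Mortality scored 9 days after infestation.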

[11] = tested on: Thrips tabaci (Onion thrips); test: Example B12: Thrips tabaci feeding/contact activity, sunflower leaf discs; conditions: foliar, 144 h, application rate of 200 ppm, thrips population of mixed ages, 6 days after infestation
Protocol: Example B12: Thrips tabaci (Onion thrips): Feeding/Contact Activity
Sunflower leaf discs were placed on agar in 24-well microtiter plates and sprayed with aqueous test solutions prepared from 10′000 ppm DMSO stock solutions. After drying the leaf discs were infested with a thrips population of mixed ages. The samples were assessed for mortality 6 days after infestation.

[12] = tested on: Myzus persicae (Green Peach Aphid); test: Example B7: Myzus persicae systemic activity, pea seedling roots in test solution; conditions: 144 h, test rate of 24 ppm, 6 days after placing seedlings into test solutions
Protocol: Example B7: Myzus persicae (Green Peach Aphid): Systemic Activity
Roots of pea seedlings infested with an aphid population of mixed ages were placed directly into aqueous test solutions prepared from 10′000 DMSO stock solutions. The samples were assessed for mortality 6 days after placing seedlings into test solutions.

CC(c1nc(Br)nn1-c1ncccn1)N(C)C(=O)c1cc(C(F)(F)F)cc(C(F)(F)F)c1 (centres unmarked) [Compound P3, N-[1-(5-bromo-2-pyrimidin-2-yl-1,2,4-triazol-3-yl)ethyl]-N-methyl-3,5-bis(trifluoromethyl)benzamide]
≥ 80%: percent effect (mortality or growth inhibition) at 200 ppm [1] | percent effect (mortality or growth inhibition) at 200 ppm [2] | percent control (mortality, anti-feedant effect or growth inhibition) at 200 ppm [3] | percent effect (mortality or growth inhibition) at 200 ppm [4] | mortality at 200 ppm [5] | mortality at 12 ppm [6] | percent control (mortality, anti-feedant effect or growth inhibition) at 200 ppm [7] | percent effect (mortality, anti-feeding or growth inhibition) at 12.5 ppm [8] | mortality at 50 ppm [9] | mortality at 500 ppm [10]

CC(c1nc(N)nn1-c1ncccn1)N(C)C(=O)c1cc(C(F)(F)F)cc(C(F)(F)F)c1 (centres unmarked) [Compound P7, N-[1-(5-amino-2-pyrimidin-2-yl-1,2,4-triazol-3-yl)ethyl]-N-methyl-3,5-bis(trifluoromethyl)benzamide]
≥ 80%: percent effect (mortality or growth inhibition) at 200 ppm [1] | percent effect (mortality or growth inhibition) at 200 ppm [2] | percent effect (mortality or growth inhibition) at 200 ppm [4] | mortality at 200 ppm [5] | mortality at 12 ppm [6] | percent control (mortality, anti-feedant effect or growth inhibition) at 200 ppm [7] | mortality at 200 ppm [11] | mortality at 50 ppm [9] | mortality at 500 ppm [10]

CC(c1nc(Cl)nn1-c1ncccn1)N(C)C(=O)c1cc(C(F)(F)F)cc(C(F)(F)F)c1 (centres unmarked) [Compound P15, N-[1-(5-chloro-2-pyrimidin-2-yl-1,2,4-triazol-3-yl)ethyl]-N-methyl-3,5-bis(trifluoromethyl)benzamide]
≥ 80%: percent effect (mortality or growth inhibition) at 200 ppm [1] | percent effect (mortality or growth inhibition) at 200 ppm [4] | percent control (mortality, anti-feedant effect or growth inhibition) at 200 ppm [7] | percent effect (mortality, anti-feeding or growth inhibition) at 12.5 ppm [8] | mortality at 50 ppm [9] | mortality at 500 ppm [10]

CC(=O)Nc1nc(C(C)N(C)C(=O)c2cc(C(F)(F)F)cc(C(F)(F)F)c2)n(-c2ncccn2)n1 (centres unmarked) [Compound P17, N-[1-(5-acetamido-2-pyrimidin-2-yl-1,2,4-triazol-3-yl)ethyl]-N-methyl-3,5-bis(trifluoromethyl) benzamide]
≥ 80%: percent effect (mortality or growth inhibition) at 200 ppm [1] | percent effect (mortality or growth inhibition) at 200 ppm [2] | percent effect (mortality or growth inhibition) at 200 ppm [4] | mortality at 200 ppm [5] | mortality at 24 ppm [12] | mortality at 12 ppm [6] | percent control (mortality, anti-feedant effect or growth inhibition) at 200 ppm [7] | mortality at 200 ppm [11] | mortality at 50 ppm [9] | mortality at 500 ppm [10]

CNc1nc(C(C)N(C)C(=O)c2cc(C(F)(F)F)cc(C(F)(F)F)c2)n(-c2ncccn2)n1 (centres unmarked) [Compound P18, N-methyl-N-[1-[5-(methylamino)-2-pyrimidin-2-yl-1,2,4-triazol-3-yl]ethyl]-3,5-bis(trifluoromethyl) benzamide]
≥ 80%: percent effect (mortality or growth inhibition) at 200 ppm [1] | percent effect (mortality or growth inhibition) at 200 ppm [2] | percent effect (mortality or growth inhibition) at 200 ppm [4] | mortality at 200 ppm [5] | mortality at 12 ppm [6] | percent control (mortality, anti-feedant effect or growth inhibition) at 200 ppm [7] | mortality at 200 ppm [11] | mortality at 50 ppm [9] | mortality at 500 ppm [10]

CC(c1nc(N=C(c2ccccc2)c2ccccc2)nn1-c1ncccn1)N(C)C(=O)c1cc(C(F)(F)F)cc(C(F)(F)F)c1 (centres unmarked) [Compound P22, N-[1-[5-(benzhydrylideneamino)-2-pyrimidin-2-yl-1,2,4-triazol-3-yl]ethyl]-N-methyl-3,5-bis(trifluoromethyl)benzamide]
≥ 80%: percent effect (mortality or growth inhibition) at 200 ppm [1] | percent effect (mortality or growth inhibition) at 200 ppm [2] | percent effect (mortality or growth inhibition) at 200 ppm [4] | mortality at 200 ppm [5] | mortality at 12 ppm [6] | percent control (mortality, anti-feedant effect or growth inhibition) at 200 ppm [7] | mortality at 200 ppm [11] | mortality at 50 ppm [9] | mortality at 500 ppm [10]

CC(NC(=O)c1cc(Cl)cc(OC(F)(F)F)c1)c1nc(Br)nn1-c1ncccn1 (centres unmarked) [Compound P32, N-[1-(5-bromo-2-pyrimidin-2-yl-1,2,4-triazol-3-yl)ethyl]-3-chloro-5-(trifluoromethoxy)ben zamide]
≥ 80%: percent effect (mortality or growth inhibition) at 200 ppm [1] | percent effect (mortality or growth inhibition) at 200 ppm [2] | percent control (mortality, anti-feedant effect or growth inhibition) at 200 ppm [3] | percent effect (mortality or growth inhibition) at 200 ppm [4] | mortality at 12 ppm [6] | percent control (mortality, anti-feedant effect or growth inhibition) at 200 ppm [7] | percent effect (mortality, anti-feeding or growth inhibition) at 12.5 ppm [8] | mortality at 50 ppm [9] | mortality at 500 ppm [10]
